Test: Excipient compatibility screening with sodium thiosulfate (appearance)
Type: physicochemical
Conditions: added to the gel formulation
Experimental: During preformulation studies, sodium thiosulfate and methionine were identified as effective antioxidants for PTH(1-34). […] Sodium thiosulfate was assayed in the gel formulations listed in Table 21 in the absence of PTH(1-34) in order to identify which excipients were incompatible with sodium thiosulfate. Gel formulations were prepared according to the method described in Example 8. LDPE dropper bottles (5 mL) were purchased from IntraPac Group and over wrap foil (FR-2175) was obtained from Covalence Coated Products. The appearance of all samples was noted initially and after one week of storage at 20° C. protected from light.

O=S([O-])([O-])=S.[Na+].[Na+] [sodium thiosulfate]
compatibility with the gel formulation: a yellowish precipitate formed

— patent US20080299228A1, “TOPICAL COMPOSITIONS COMPRISING A MACROMOLECULE AND METHODS OF USING SAME” (priority 2007, published 2008)
